Format in all cases: cell-based
In one assay the test system is Burkholderia mallei. The assay is described as follows: microbe, parasite or virus in culture. Conditions: for MIC: read-out: MIC range.
A further assay relates to Bacillus anthracis. The assay is described as follows: microbe, parasite or virus in culture. The conditions noted are these: for MIC: read-out: MIC range.
A further assay concerns Yersinia pestis. The assay is described as follows: microbe, parasite or virus in culture. The conditions noted are these: for MIC: read-out: MIC range.
The subject of the next assay is Francisella tularensis. As to the kind of experiment: microbe, parasite or virus in culture. Conditions: for MIC: read-out: MIC range.
The test system of assay [1] is Burkholderia pseudomallei. The assay is described as follows: microbe, parasite or virus in culture. Conditions: Burkholderia pseudomallei; for MIC: read-out: MIC range.
The subject of the next assay is Enterobacteriaceae.
The subject of a further assay is E. coli DH10B. The assay is described as follows: microbe, parasite or virus in culture. The conditions noted are these: Escherichia coli.
The test system of assay [2] is E. coli DH10B mcr-1 transformant. As to the kind of experiment: microbe, parasite or virus in culture. Conditions: Escherichia coli.

In brackets after ≈: the same amount, converted by molar mass.

For the compound `CC[C@H]1OC(=O)[C@H](C)[C@@H](O[C@H]2C[C@@](C)(OC)[C@@H](O)[C@H](C)O2)[C@H](C)[C@@H](O[C@@H]2O[C@H](C)C[C@H](N(C)C)[C@H]2O)[C@](C)(O)C[C@@H](C)CN(C)[C@H](C)[C@@H](O)[C@]1(C)O` [Azithromycin, azithromycin, reference compound], in the assay on Burkholderia mallei, the MIC50 amounted to 0.5 µg/mL (≈ 0.668 µM), the MIC90 amounted to 1 µg/mL (≈ 1.34 µM) and the MIC was in the range of 0.06 to 1 µg/mL (≈ 0.0801 to 1.34 µM).

Take `C=CCN1[C@H](CCNC(C)=N)CCC[C@H]1c1ccc(-n2cc3cc(-c4cc(CCC[C@H](C)N)cc(Cl)c4F)[nH]c3nc2=O)cc1` [RX-D10]: the MIC50 against Bacillus anthracis came to 0.12 µg/mL (≈ 0.19 µM); against Yersinia pestis it was 0.12 µg/mL (≈ 0.19 µM); with Francisella tularensis, 0.12 µg/mL (≈ 0.19 µM); against Burkholderia mallei, 0.12 µg/mL (≈ 0.19 µM); in assay [1], 2 µg/mL (≈ 3.16 µM). For the same compound, the MIC90 against Bacillus anthracis came out at 0.25 µg/mL (≈ 0.395 µM); against Yersinia pestis, 0.5 µg/mL (≈ 0.791 µM); against Francisella tularensis it was 0.5 µg/mL (≈ 0.791 µM); with Burkholderia mallei, 0.25 µg/mL (≈ 0.395 µM); in assay [1] it was 4 µg/mL (≈ 6.33 µM). In addition, the MIC with Bacillus anthracis was in the range of 0.008 to 0.25 µg/mL (≈ 0.0127 to 0.395 µM); in the assay with Yersinia pestis it was 0.03 to 0.5 µg/mL (≈ 0.0475 to 0.791 µM); in the assay on Francisella tularensis, 0.03 to 2 µg/mL (≈ 0.0475 to 3.16 µM); in the assay on Burkholderia mallei it was 0.06 to 0.25 µg/mL (≈ 0.0949 to 0.395 µM); in assay [1], 0.25 to 8 µg/mL (≈ 0.395 to 12.7 µM).

Turning to `CSc1cc(-n2cc3cc(-c4cc(CCC[C@@H](N)C5CC5)cc(Cl)c4F)[nH]c3nc2=O)ccc1[C@@H]1CCC[C@@H](CCNC(C)=N)N1` [RX-D1], the MIC50 amounted to 0.06 µg/mL (≈ 0.0903 µM) in the assay with Bacillus anthracis; 0.12 µg/mL (≈ 0.181 µM) in the assay on Yersinia pestis; 0.12 µg/mL (≈ 0.181 µM) in the assay on Francisella tularensis; 0.12 µg/mL (≈ 0.181 µM) with Burkholderia mallei; 1 µg/mL (≈ 1.51 µM) in assay [1]. Moreover, the MIC90 with Bacillus anthracis came out at 0.06 µg/mL (≈ 0.0903 µM); with Yersinia pestis it was 0.25 µg/mL (≈ 0.376 µM); with Francisella tularensis, 0.25 µg/mL (≈ 0.376 µM); against Burkholderia mallei, 0.12 µg/mL (≈ 0.181 µM); in assay [1] it was 4 µg/mL (≈ 6.02 µM). In addition, the MIC lay within 0.008 to 0.12 µg/mL (≈ 0.012 to 0.181 µM) with Bacillus anthracis; 0.008 to 0.25 µg/mL (≈ 0.012 to 0.376 µM) in the assay on Yersinia pestis; 0.06 to 0.5 µg/mL (≈ 0.0903 to 0.753 µM) in the assay with Francisella tularensis; 0.06 to 0.25 µg/mL (≈ 0.0903 to 0.376 µM) in the assay on Burkholderia mallei; 0.5 to 4 µg/mL (≈ 0.753 to 6.02 µM) in assay [1].

In the case of `CSc1cc(-n2cc3cc(-c4cc(CCC[C@@H](N)C5CC5)cc(Cl)c4F)[nH]c3nc2=O)ccc1[C@@H]1CCC[C@@H](CCNC(C)=N)N1` [RX-04B, N-(2-((2S,6S)-6-(4-(6-(5-((R)-4-amino-4-cyclopropylbutyl)-3-chloro-2-fluorophenyl)-2-oxo-2,7-dihydro-3H-pyrrolo[2,3-d]pyrimidin-3-yl)-2-(methylthio)phenyl)piperidin-2-yl)ethyl)acetimidamide], the “peak of unimodal MIC distribution” value with Enterobacteriaceae amounted to 1 µg/mL. For the same compound, the MIC (in the assay on E. coli DH10B; in assay [2]) was 0.5 µg/mL (≈ 0.753 µM) each time.

In the case of `C[C@H](N)CCCc1cc(Cl)c(F)c(-c2cc3cn(-c4ccc([C@H]5CC[C@H](CCNC(=N)N)N5)cc4)c(=O)nc3[nH]2)c1` [RX-D13], the MIC50 in the assay on Bacillus anthracis was determined as 0.06 µg/mL (≈ 0.104 µM); with Yersinia pestis, 0.06 µg/mL (≈ 0.104 µM); with Francisella tularensis, 0.015 µg/mL (≈ 0.0259 µM); in the assay with Burkholderia mallei, 0.06 µg/mL (≈ 0.104 µM); in assay [1] it was 1 µg/mL (≈ 1.73 µM). For the same compound, the MIC90 is 0.06 µg/mL (≈ 0.104 µM) in the assay with Bacillus anthracis; 0.25 µg/mL (≈ 0.432 µM) against Yersinia pestis; 0.06 µg/mL (≈ 0.104 µM) against Francisella tularensis; 0.12 µg/mL (≈ 0.207 µM) against Burkholderia mallei; 4 µg/mL (≈ 6.91 µM) in assay [1]. The MIC in the assay with Bacillus anthracis is 0.008 to 0.12 µg/mL (≈ 0.0138 to 0.207 µM); in the assay with Yersinia pestis it was 0.03 to 0.25 µg/mL (≈ 0.0518 to 0.432 µM); with Francisella tularensis it was 0.004 to 0.12 µg/mL (≈ 0.00691 to 0.207 µM); with Burkholderia mallei, 0.008 to 0.12 µg/mL (≈ 0.0138 to 0.207 µM); in assay [1], 0.25 to 8 µg/mL (≈ 0.432 to 13.8 µM).

In the case of `C[C@H](N)CCCc1cc(Cl)c(F)c(-c2cc3cn(-c4ccc([C@@H]5CCC[C@@H](CCNC(=N)CN)N5)cc4)c(=O)nc3[nH]2)c1` [RX-D6], the MIC50 in the assay on Bacillus anthracis was 0.12 µg/mL (≈ 0.198 µM); with Yersinia pestis it was 0.5 µg/mL (≈ 0.823 µM); in the assay with Francisella tularensis it was 0.06 µg/mL (≈ 0.0988 µM); in the assay with Burkholderia mallei, 0.12 µg/mL (≈ 0.198 µM); in assay [1], > 8 µg/mL. For the same compound, the MIC90 in the assay with Bacillus anthracis was 0.25 µg/mL (≈ 0.412 µM); against Yersinia pestis it was 1 µg/mL (≈ 1.65 µM); in the assay on Francisella tularensis, 0.25 µg/mL (≈ 0.412 µM); in the assay with Burkholderia mallei, 0.25 µg/mL (≈ 0.412 µM); in assay [1], > 8 µg/mL. In addition, the MIC in the assay with Bacillus anthracis fell in the range of 0.06 to 0.25 µg/mL (≈ 0.0988 to 0.412 µM); with Yersinia pestis it was 0.015 to 1 µg/mL (≈ 0.0247 to 1.65 µM); with Francisella tularensis it was 0.03 to 0.5 µg/mL (≈ 0.0494 to 0.823 µM); in the assay on Burkholderia mallei, 0.12 to 0.25 µg/mL (≈ 0.198 to 0.412 µM).

Consider `CCCN1[C@H](CCNC(C)=N)CCC[C@H]1c1ccc(-n2cc3cc(-c4cc(CCC[C@H](C)N)cc(Cl)c4F)[nH]c3nc2=O)cc1` [RX-D5], for which the MIC50 in the assay on Bacillus anthracis came out at 0.06 µg/mL (≈ 0.0946 µM); in the assay on Yersinia pestis, 0.12 µg/mL (≈ 0.189 µM); against Francisella tularensis it was 0.06 µg/mL (≈ 0.0946 µM); with Burkholderia mallei, 0.06 µg/mL (≈ 0.0946 µM); in assay [1], 4 µg/mL (≈ 6.31 µM). Further, the MIC90 against Bacillus anthracis is 0.06 µg/mL (≈ 0.0946 µM); against Yersinia pestis, 0.25 µg/mL (≈ 0.394 µM); against Francisella tularensis it was 0.12 µg/mL (≈ 0.189 µM); against Burkholderia mallei it was 0.12 µg/mL (≈ 0.189 µM); in assay [1] it was 8 µg/mL (≈ 12.6 µM). For the same compound, the MIC fell in the range of 0.015 to 0.12 µg/mL (≈ 0.0237 to 0.189 µM) in the assay on Bacillus anthracis, 0.03 to 0.5 µg/mL (≈ 0.0473 to 0.788 µM) in the assay with Yersinia pestis, 0.004 to 1 µg/mL (≈ 0.00631 to 1.58 µM) in the assay on Francisella tularensis and 0.03 to 0.12 µg/mL (≈ 0.0473 to 0.189 µM) in the assay with Burkholderia mallei.

In the case of `CC(=N)NCC[C@@H]1CSC[C@@H](c2ccc(-n3cc4cc(-c5cc(CCC[C@H](C)N)cc(Cl)c5F)[nH]c4nc3=O)cc2)N1` [RX-D9], the MIC50 was 0.06 µg/mL (≈ 0.0983 µM) against Bacillus anthracis; 0.12 µg/mL (≈ 0.197 µM) with Yersinia pestis; 0.12 µg/mL (≈ 0.197 µM) against Francisella tularensis; 0.12 µg/mL (≈ 0.197 µM) in the assay on Burkholderia mallei; 2 µg/mL (≈ 3.28 µM) in assay [1]. The MIC90 with Bacillus anthracis turned out to be 0.12 µg/mL (≈ 0.197 µM); in the assay on Yersinia pestis, 0.25 µg/mL (≈ 0.41 µM); in the assay on Francisella tularensis, 0.25 µg/mL (≈ 0.41 µM); with Burkholderia mallei, 0.25 µg/mL (≈ 0.41 µM); in assay [1], 4 µg/mL (≈ 6.56 µM). The MIC in the assay with Bacillus anthracis lay in the range of 0.008 to 0.12 µg/mL (≈ 0.0131 to 0.197 µM); with Yersinia pestis it was 0.06 to 0.5 µg/mL (≈ 0.0983 to 0.819 µM); with Francisella tularensis, 0.03 to 2 µg/mL (≈ 0.0492 to 3.28 µM); in the assay with Burkholderia mallei, 0.03 to 0.5 µg/mL (≈ 0.0492 to 0.819 µM); in assay [1] it was 0.5 to 4 µg/mL (≈ 0.819 to 6.56 µM).

For the origin of these results see patent US12152031B2, “Biodefense agents” (priority 2018, dated 2024).
